Assay results reported in PubChem BioAssay (NCI).
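Abbreviation: GI50, concentration required for 50% inhibition of growth. TGI marks complete inhibition of growth.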

Experiments:
Assay in all cases: NCI tumour cell line growth inhibition, 384-well format
[1] = system: HL-60(TB) leukemia
[2] = system: HT29 colon
[3] = system: BT-549 breast
[4] = system: KM12 colon
[5] = system: SF-295 CNS
[6] = system: IGROV1 ovarian
[7] = system: UACC-62 melanoma
[8] = system: OVCAR-5 ovarian
[9] = system: SK-MEL-28 melanoma
[10] = system: SN12C renal
[11] = system: SF-539 CNS
[12] = system: ACHN renal
[13] = system: OVCAR-3 ovarian

`O=C(c1ccccc1O)c1[nH]c(Cl)c(Cl)c1-n1c(C(=O)c2ccccc2O)cc(Cl)c1Cl` gave a GI50 [1] of 257 nM, a TGI [1] of 572 nM and a GI50 [2] of 518 nM. It also gave a TGI [2] of 4330 nM, a GI50 [3] of 631 nM and a TGI [3] of 1620 nM. It also gave a GI50 [4] of 537 nM, a TGI [4] of 1930 nM and a GI50 [5] of 448 nM. It also gave a TGI [5] of 1300 nM, a GI50 [6] of 521 nM and a TGI [6] of 8560 nM. It also gave a GI50 [7] of 599 nM, a TGI [7] of 1860 nM and a GI50 [8] of 1440 nM. The TGI [8] was 4710 nM, the GI50 [9] was 367 nM and the TGI [9] was 1430 nM. For the same compound, the GI50 [10] was 209 nM, the TGI [10] was 746 nM and the GI50 [11] was 537 nM. The TGI [11] was 1630 nM, the GI50 [12] was 649 nM and the TGI [12] was 2780 nM. The GI50 [13] was 353 nM and the TGI [13] was 1500 nM.
